According to ChEMBL document CHEMBL5678818, “Discovery of potent SOS1 inhibitors that block RAS activation via disruption of the RAS-SOS1 interaction” (Proc Natl Acad Sci U S A, 2019):

Columns and labels:
[1] = biological target: Ribosomal protein S6 kinase alpha-6 (Homo sapiens) (UniProt Q9UK32); assay: Inhibition of N-terminal RSK4 […] domain 1 (unknown origin) assessed as residual activity at 1000 nM by KINOMEscan analysis relative to control
[2] = biological target: Mitogen-activated protein kinase kinase kinase kinase 1 (Homo sapiens) (UniProt Q92918); assay: Inhibition of HPK1 (unknown origin) assessed as residual activity at 1000 nM by KINOMEscan analysis relative to control
[3] = biological target: T1, Serine/threonine-protein kinase D3 (Homo sapiens) (UniProt O94806); assay: Inhibition of PRKD3 (unknown origin) assessed as residual activity at 1000 nM by KINOMEscan analysis relative to control
T1 sequence (whole entry): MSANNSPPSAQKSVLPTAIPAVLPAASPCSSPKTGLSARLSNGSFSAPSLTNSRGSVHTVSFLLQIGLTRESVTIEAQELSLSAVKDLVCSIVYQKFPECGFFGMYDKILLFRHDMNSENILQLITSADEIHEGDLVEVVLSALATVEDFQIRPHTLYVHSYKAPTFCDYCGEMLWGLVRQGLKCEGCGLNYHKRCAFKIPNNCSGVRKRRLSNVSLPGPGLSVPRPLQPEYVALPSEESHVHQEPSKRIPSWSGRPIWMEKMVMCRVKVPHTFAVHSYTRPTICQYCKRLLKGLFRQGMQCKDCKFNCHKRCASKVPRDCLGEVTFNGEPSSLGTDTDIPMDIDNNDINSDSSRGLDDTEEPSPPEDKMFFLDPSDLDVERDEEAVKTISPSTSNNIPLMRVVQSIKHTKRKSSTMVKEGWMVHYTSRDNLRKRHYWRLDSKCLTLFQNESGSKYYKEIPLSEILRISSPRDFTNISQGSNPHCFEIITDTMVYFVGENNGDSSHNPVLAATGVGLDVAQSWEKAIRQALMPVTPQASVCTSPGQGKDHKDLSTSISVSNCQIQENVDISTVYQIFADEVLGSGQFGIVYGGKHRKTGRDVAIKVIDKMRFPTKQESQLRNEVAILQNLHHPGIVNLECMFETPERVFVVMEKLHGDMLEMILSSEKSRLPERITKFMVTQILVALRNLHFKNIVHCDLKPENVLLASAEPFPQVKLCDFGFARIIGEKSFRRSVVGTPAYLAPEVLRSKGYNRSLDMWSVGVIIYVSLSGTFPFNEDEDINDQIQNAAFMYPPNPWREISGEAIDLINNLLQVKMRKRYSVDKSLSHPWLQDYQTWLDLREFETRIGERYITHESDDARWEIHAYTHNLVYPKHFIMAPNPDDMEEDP

[4] = biological target: Ribosomal protein S6 kinase alpha-5 (Homo sapiens) (UniProt O75582); assay: Inhibition of C-terminal RPS6KA5 kinetic domain 2 (unknown origin) assessed as residual activity at 1000 nM by KINOMEscan analysis relative to control
[5] = biological target: Myosin light chain kinase 2, skeletal/cardiac muscle (Homo sapiens) (UniProt Q9H1R3); assay: Inhibition of MYLK2 (unknown origin) assessed as residual activity at 1000 nM by KINOMEscan analysis relative to control
[6] = biological target: T2, Serine/threonine-protein kinase D2 (Homo sapiens) (UniProt Q9BZL6); assay: Inhibition of PRKD2 (unknown origin) assessed as residual activity at 1000 nM by KINOMEscan analysis relative to control
T2 sequence (whole entry): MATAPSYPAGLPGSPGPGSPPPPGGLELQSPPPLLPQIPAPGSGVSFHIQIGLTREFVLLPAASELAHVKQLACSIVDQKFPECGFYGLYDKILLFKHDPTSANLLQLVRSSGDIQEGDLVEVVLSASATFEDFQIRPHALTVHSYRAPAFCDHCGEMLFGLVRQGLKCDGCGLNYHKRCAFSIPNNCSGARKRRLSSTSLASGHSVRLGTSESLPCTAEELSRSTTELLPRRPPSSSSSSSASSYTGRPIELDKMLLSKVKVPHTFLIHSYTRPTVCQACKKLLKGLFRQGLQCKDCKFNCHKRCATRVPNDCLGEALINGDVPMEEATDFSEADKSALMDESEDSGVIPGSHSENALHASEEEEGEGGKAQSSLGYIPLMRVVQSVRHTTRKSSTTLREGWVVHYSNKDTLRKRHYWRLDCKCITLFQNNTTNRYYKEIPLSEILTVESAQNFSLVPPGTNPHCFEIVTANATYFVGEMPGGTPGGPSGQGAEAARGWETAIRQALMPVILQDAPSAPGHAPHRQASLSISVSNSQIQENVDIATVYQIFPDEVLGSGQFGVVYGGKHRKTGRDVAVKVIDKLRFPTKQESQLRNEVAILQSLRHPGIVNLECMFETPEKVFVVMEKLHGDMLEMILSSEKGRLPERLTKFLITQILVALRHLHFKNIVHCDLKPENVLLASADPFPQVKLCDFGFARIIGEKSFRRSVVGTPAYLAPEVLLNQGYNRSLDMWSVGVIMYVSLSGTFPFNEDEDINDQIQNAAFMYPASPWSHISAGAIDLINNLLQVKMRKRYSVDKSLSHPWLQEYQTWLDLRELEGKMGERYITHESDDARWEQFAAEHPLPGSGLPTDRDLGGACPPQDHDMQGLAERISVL

[7] = biological target: Focal adhesion kinase 1 (Homo sapiens) (UniProt Q05397); assay: Inhibition of FAK (unknown origin) assessed as residual activity at 1000 nM by KINOMEscan analysis relative to control
[8] = tested on: Epidermal growth factor receptor (Homo sapiens), P00533 [UNDEFINED MUTATION]; assay: Inhibition of EGFR E746-A750del mutant (unknown origin) assessed as residual activity at 1000 nM by KINOMEscan analysis relative to control
Chain of Epidermal growth factor receptor (Homo sapiens), P00533 [UNDEFINED MUTATION] (P00533 whole entry, looked up, stated change not applied): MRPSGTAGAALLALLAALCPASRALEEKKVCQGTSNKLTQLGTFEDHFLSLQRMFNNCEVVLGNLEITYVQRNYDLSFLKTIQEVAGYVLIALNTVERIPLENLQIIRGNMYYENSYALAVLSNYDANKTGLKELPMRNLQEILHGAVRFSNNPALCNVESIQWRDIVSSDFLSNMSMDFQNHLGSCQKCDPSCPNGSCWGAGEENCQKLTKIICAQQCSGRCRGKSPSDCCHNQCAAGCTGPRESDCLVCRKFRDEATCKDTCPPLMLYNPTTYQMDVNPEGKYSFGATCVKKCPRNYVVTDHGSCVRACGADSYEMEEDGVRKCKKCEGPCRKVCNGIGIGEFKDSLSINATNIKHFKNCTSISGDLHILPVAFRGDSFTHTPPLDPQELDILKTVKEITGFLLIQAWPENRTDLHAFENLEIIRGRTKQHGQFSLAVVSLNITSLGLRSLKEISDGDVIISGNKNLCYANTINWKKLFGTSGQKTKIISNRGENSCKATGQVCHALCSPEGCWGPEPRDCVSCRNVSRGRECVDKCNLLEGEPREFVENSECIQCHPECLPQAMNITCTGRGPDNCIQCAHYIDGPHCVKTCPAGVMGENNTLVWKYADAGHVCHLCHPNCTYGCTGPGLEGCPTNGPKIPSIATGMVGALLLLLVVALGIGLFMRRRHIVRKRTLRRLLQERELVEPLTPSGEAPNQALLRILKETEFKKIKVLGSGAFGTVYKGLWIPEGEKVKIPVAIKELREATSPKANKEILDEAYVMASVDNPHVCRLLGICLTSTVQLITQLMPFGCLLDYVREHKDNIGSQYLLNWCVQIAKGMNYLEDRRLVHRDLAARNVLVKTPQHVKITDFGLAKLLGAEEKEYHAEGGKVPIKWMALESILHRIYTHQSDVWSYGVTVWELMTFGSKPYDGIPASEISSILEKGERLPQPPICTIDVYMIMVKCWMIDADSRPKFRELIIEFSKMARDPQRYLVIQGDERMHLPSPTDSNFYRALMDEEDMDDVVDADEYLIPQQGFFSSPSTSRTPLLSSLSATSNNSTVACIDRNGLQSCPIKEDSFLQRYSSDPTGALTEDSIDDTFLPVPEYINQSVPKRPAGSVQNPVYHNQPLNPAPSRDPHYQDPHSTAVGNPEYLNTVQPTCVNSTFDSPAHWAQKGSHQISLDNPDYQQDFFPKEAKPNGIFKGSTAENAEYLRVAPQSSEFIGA

Chain of Myosin light chain kinase 2, skeletal/cardiac muscle (Homo sapiens) (Q9H1R3 whole entry): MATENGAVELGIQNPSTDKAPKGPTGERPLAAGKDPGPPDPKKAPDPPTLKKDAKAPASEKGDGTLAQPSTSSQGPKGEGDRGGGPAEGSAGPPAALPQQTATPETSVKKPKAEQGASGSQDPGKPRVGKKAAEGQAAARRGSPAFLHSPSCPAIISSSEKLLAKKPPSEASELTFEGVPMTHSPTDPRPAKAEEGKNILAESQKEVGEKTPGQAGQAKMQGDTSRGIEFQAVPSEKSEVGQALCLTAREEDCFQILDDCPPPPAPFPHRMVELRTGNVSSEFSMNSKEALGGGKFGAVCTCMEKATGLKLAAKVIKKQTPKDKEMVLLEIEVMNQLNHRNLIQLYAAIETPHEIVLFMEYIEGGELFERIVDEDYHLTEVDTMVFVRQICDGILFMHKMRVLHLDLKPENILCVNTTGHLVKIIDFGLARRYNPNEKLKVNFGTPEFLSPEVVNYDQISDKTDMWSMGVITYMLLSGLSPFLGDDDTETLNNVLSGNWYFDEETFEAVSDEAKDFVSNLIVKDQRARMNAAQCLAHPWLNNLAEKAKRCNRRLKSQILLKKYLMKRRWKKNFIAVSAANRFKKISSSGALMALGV
Chain of Focal adhesion kinase 1 (Homo sapiens) (Q05397 2-1052 limits assumed): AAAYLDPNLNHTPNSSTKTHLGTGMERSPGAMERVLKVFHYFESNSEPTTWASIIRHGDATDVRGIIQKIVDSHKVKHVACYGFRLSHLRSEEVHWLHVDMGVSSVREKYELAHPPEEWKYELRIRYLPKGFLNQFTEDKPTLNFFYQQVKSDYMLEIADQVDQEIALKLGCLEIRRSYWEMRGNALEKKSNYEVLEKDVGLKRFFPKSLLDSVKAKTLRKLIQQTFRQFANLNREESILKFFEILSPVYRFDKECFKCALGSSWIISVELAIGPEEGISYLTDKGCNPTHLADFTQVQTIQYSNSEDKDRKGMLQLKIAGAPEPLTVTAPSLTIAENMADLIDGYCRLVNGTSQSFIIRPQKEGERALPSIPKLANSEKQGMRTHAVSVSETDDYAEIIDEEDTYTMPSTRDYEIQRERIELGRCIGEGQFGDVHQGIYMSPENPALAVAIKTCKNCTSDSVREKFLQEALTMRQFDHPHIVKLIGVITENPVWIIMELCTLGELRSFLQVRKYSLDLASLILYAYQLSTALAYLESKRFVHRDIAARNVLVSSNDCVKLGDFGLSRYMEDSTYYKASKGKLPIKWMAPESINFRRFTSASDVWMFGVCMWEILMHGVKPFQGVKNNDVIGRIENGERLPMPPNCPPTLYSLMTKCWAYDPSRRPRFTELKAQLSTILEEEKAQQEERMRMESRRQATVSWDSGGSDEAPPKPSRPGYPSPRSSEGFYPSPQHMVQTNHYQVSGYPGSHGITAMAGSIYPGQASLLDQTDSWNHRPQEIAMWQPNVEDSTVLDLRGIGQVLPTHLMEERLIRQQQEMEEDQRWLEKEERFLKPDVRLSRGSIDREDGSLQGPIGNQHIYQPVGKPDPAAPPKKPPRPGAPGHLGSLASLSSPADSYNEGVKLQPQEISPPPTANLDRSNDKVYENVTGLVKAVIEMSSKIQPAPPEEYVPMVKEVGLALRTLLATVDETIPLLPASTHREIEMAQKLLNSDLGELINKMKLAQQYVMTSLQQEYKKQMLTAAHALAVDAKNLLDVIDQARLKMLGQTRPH
Chain of Ribosomal protein S6 kinase alpha-6 (Homo sapiens) (Q9UK32 whole entry): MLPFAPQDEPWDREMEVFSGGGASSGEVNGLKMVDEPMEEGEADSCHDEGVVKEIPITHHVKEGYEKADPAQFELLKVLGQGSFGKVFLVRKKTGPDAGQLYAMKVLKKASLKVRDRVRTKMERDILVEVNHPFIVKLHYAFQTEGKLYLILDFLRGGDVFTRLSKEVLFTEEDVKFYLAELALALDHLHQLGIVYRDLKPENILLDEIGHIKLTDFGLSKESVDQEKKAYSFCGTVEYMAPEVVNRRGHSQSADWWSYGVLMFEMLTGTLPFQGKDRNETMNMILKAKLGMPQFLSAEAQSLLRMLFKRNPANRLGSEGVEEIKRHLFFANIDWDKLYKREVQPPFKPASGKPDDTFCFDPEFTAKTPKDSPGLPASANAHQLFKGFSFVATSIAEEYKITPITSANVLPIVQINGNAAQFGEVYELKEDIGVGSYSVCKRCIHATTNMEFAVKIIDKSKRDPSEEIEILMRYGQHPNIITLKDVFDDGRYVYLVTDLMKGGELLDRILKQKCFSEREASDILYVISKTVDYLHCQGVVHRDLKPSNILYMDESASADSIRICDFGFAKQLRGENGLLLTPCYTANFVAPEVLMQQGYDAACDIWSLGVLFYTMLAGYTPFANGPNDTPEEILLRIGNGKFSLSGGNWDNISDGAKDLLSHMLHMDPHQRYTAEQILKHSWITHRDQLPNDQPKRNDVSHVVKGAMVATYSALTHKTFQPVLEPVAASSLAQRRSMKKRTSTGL
Chain of Mitogen-activated protein kinase kinase kinase kinase 1 (Homo sapiens) (Q92918 whole entry, looked up): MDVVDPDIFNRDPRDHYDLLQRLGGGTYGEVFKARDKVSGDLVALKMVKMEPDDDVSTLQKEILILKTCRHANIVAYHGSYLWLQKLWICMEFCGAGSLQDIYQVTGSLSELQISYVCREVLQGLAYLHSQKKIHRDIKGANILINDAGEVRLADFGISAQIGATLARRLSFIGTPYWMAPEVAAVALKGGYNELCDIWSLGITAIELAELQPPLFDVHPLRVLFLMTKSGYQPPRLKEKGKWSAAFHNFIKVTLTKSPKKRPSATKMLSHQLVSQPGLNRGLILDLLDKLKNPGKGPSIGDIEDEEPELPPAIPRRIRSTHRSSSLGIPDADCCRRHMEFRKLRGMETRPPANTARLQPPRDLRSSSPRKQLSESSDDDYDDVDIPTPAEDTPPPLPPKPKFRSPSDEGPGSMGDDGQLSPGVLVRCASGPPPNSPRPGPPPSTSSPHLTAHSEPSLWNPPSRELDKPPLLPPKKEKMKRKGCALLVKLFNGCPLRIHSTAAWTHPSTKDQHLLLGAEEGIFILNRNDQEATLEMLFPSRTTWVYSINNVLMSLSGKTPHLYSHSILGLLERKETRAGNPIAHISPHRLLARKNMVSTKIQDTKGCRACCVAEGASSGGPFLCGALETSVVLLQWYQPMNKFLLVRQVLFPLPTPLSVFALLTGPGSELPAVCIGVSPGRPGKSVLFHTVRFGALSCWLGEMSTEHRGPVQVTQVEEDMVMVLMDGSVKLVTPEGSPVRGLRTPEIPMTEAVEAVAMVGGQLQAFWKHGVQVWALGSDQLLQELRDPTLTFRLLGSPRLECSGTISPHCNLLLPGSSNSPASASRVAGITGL

SMILES	Activity [1] [%]	Activity [2] [%]	Activity [3] [%]	Activity [4] [%]	Activity [5] [%]	Activity [6] [%]	Activity [7] [%]	Activity [8] [%]
COc1cc2nc(C)nc(N[C@H](C)c3cccc(-c4cn[nH]c4)c3)c2cc1OC	78	97	100	100	73	100	95	100
COc1cc2ncnc(N[C@H](C)c3cccc4ccccc34)c2cc1OC	100	100	100	92	100	90	100	5.9
